US20230070338A1, “SHP2 Inhibitor Dosing and Methods of Treating Cancer” (Revolution Medicines, Inc., priority 2020, published 2023)
Like-named read-outs stand apart in the source and are kept apart here.

How the values were obtained:
[1] = system: ERK phosphorylation (pERK); experiment: ERK phosphorylation in vitro; type: cell-based
Text: (§1) SHP2 inhibition with RMC-4630 inhibits ERK phosphorylation (pERK) and proliferation in vitro. Inhibition of pERK may be used as an assay monitoring or determining efficacy of treatment with a SHP2 inhibitor of the disclosure.

[2] = RMC-4630-01 phase 1 study: pharmacokinetics in patients; type: in vivo, human; conditions: for AUC(0-t) / Cmax / Tmax / half-life: human, plasma, oral; for Cmax: read-out: Cmax [Mean(CV %)]; for Tmax: read-out: Median Tmax (range)
Text: RMC-4630-01 is a phase 1 dose escalation study in patients with advanced cancers that evaluates the safety, pharmacokinetics and pharmacodynamic effects of RMC-4630 as a single agent under two different dose administration schedules; daily dosing and twice weekly dosing.
The RMC-4630-01 study was initially designed to evaluate two different schedules: a daily dosing schedule and an intermittent dosing schedule (D1, D4 of every week).

[3] = system: tumors harboring NF1 LOF mutations; experiment: RMC-4630-01 study: single agent activity in tumors harboring NF1 LOF; type: in vivo, human
Text: FIG. 28 is a waterfall plot of patients with NSCLC or gynecologic tumors harboring NF1 LOF treated with RMC-4630. Data are presented for the efficacy evaluable population (N=6) defined as participants with baseline and at least one post-baseline scan or who died or had clinical progression prior to first post-baseline scan. One patient (NSCLC) with death due to clinical PD prior to first scan is not represented in this figure. NF1 LOF is loss, or significant reduction, in neurofibromin protein function is presumed from nature of mutation.
Single agent activity of RMC-4630 has also been reported in two patients with tumors harboring NF1 LOF mutations. […] This patient was diagnosed with a tumor harboring two NF1 LOF mutations, a POLE (DNA repair) mutation, and ultra-high tumor mutational burden. The patient had received two treatment regimens prior to starting RMC-4630. […] At two months, their tumor dimension had reduced from 1.7 cm to undetectable. CR was subsequently confirmed and they continue in CR at five months on study therapy.
Data are presented for the efficacy evaluable population (N=6) defined as participants with baseline and at least one post-baseline scan or who died or had clinical progression prior to first post-baseline scan. One patient (NSCLC) with death due to clinical PD prior to first scan is not represented in this figure. NF1 LOF is loss, or significant reduction, in neurofibromin protein function which is presumed from the nature of the mutation in the neurofibromin 1 gene.

proliferation = experiment: Proliferation in vitro; type: cell-based
Text: as §1

KRAS mutant NSCLC = experiment: RMC-4630-01 phase 1 study: clinical anti-tumor activity; type: in vivo, human; conditions: one patient with KRAS^G12V NSCLC, stable disease
[4] = system: non-small cell lung cancer (NSCLC) having a mutation in KRAS (KRAS^G12C); experiment: Preclinical mouse model of NSCLC with KRAS G12C (FIG. 2); type: in vivo; conditions: daily at either 10 mg/kg or 30 mg/kg
Procedure: In this study, RMC-4630 was administered daily at either 10 mg/kg or 30 mg/kg.

[5] = system: NCI-H358 KRASG12C xenograft model; experiment: NCI-H358 KRASG12C xenograft model, anti-tumor activity and exposure; type: in vivo
[6] = system: ERK phosphorylation (pERK); experiment: Pharmacodynamic effect on ERK activation in patients (blood cells, tumor biopsies); type: in vivo, human
Text: FIG. 7A is a graph depicting the H-Score for nuclear and cytoplasmic ERK phosphorylation in cells obtained from each of four patients following treatment with RMC-4630 on a daily dosing schedule provided in FIG. 7C. H score is the product of percentage of tumor cells staining positive for pERK and the intensity of staining per cell. Both nuclear and cytoplasmic pERK are shown.
Pharmacodynamic effects of RMC-4630, comparison of daily and intermittent schedules. Activation of the protein ERK, which is an important protein in the RAS signaling pathway and a substrate for MEK, is a good surrogate for the inhibition of pathway activity by a SHP2 inhibitor. The pharmacodynamic effects of RMC-4630 on activation of ERK were studied in the blood cells of patients being treated with RMC-4630. […] These effects are consistent with engagement and inhibition of the SHP2 target and downstream RAS signaling by RMC-4630.
Phosphorylation of ERK has been assessed in tumor before, and while receiving, RMC-4630 (FIG. 7).

[7] = Mouse efficacy pharmacokinetics (QD, steady state); type: in vivo; conditions: for Cmax / AUC(0-t): Mouse efficacy, QD steady state; for AUC(0-t): read-out: AUC0-24
[8] = RMC-4630-01 phase 1 study: safety and tolerability
[9] = system: KRASG12C pancreatic tumor cell line MIA PaCa-2; experiment: Apoptosis in vivo in MIA PaCa-2; conditions: single dose of 30 mg/kg
[10] = 140 mg, 140 mg twice weekly (D1, D4), Cycle/Day 1/1
[11] = 140 mg, 140 mg twice weekly (D1, D4), Cycle/Day 1/15
[12] = 200 mg, 200 mg twice weekly (D1, D4), Cycle/Day 1/1
[13] = 200 mg, 200 mg twice weekly (D1, D4), Cycle/Day 1/15
[14] = same uterine carcinosarcoma patient

Cc1nc(N2CCC3(CC2)CO[C@@H](C)[C@H]3N)c(CO)nc1Sc1ccnc(N)c1Cl [RMC-4630]
effect on ERK phosphorylation (pERK) [1]: inhibits
total exposure over a 24 hour period ([2]; 60 mg daily (putative MTD)): 14.6 µM·h
Mean accumulation (AUC0-24 ratio) ([2]; 140 mg twice weekly (D1, D4), Cycle/Day 1/15): 1.3
Cmax concentrations compared with the apoptotic threshold ([2]; 200 mg D1, D2): generally above
trough concentrations towards the end of the week ([2]; 200 mg D1, D2): below those thought to be required for normal tissue recovery
Mean accumulation (AUC0-24 ratio) ([2]; 200 mg twice weekly (D1, D2), Cycle/Day 1/15): 1.0
Mean accumulation (AUC0-24 ratio) ([2]; 200 mg twice weekly (D1, D4), Cycle/Day 1/15): 1.1
plasma exposure compared with range active in preclinical models ([2]; both dose levels (140 mg, 200 mg), D1, D4 schedule): within the range anticipated to be biologically active
exposure versus dose ([2]; daily dosing): increased approximately proportionally with increasing dose
time to steady state of plasma concentrations ([2]; daily dosing): ≤ 22 days
AUC(0-t) ([2]; 140 mg, 140 mg twice weekly (D1, D4), Cycle/Day 1/1, read-out: AUC0-24 [Mean(CV %)]): 10.8 µM·h
AUC(0-t) ([2]; 140 mg, 140 mg twice weekly (D1, D4), Cycle/Day 1/1, read-out: AUC0-72 [Mean(CV %)]): 19.7 µM·h
Cmax [2, 10]: 915 nM
Tmax [2, 10]: 2 h
half-life ([2]; 140 mg, 140 mg twice weekly (D1, D4), Cycle/Day 1/1, read-out: Median t1/2 (range) (converted)): 1680 min
AUC(0-t) ([2]; 140 mg, 140 mg twice weekly (D1, D4), Cycle/Day 1/15, read-out: AUC0-24 [Mean(CV %)]): 14 µM·h
Cmax [2, 11]: 935 nM
Tmax [2, 11]: 2 h
half-life ([2]; 140 mg, following a single dose at 140 mg, read-out: median half-life (converted)): ~1680 min
AUC(0-t) ([2]; 200 mg, 200 mg twice weekly (D1, D2), Cycle/Day 1/1, read-out: AUC0-24 [Mean(CV %)]): 13.9 µM·h
Cmax ([2]; 200 mg, 200 mg twice weekly (D1, D2), Cycle/Day 1/1): 1580 nM
Tmax ([2]; 200 mg, 200 mg twice weekly (D1, D2), Cycle/Day 1/1, time post D2 dosing): 3 h
AUC(0-t) ([2]; 200 mg, 200 mg twice weekly (D1, D2), Cycle/Day 1/15, read-out: AUC0-24 [Mean(CV %)]): 14.5 µM·h
Cmax ([2]; 200 mg, 200 mg twice weekly (D1, D2), Cycle/Day 1/15): 1630 nM
Tmax ([2]; 200 mg, 200 mg twice weekly (D1, D2), Cycle/Day 1/15, time post D16 dosing): 2 h
AUC(0-t) ([2]; 200 mg, 200 mg twice weekly (D1, D4), Cycle/Day 1/1, read-out: AUC0-24 [Mean(CV %)]): 17.5 µM·h
AUC(0-t) ([2]; 200 mg, 200 mg twice weekly (D1, D4), Cycle/Day 1/1, read-out: AUC0-72 [Mean(CV %)]): 39 µM·h
Cmax [2, 12]: 1380 nM
Tmax [2, 12]: 2 h
half-life ([2]; 200 mg, 200 mg twice weekly (D1, D4), Cycle/Day 1/1, read-out: Median t1/2 (range) (converted)): 1980 min
AUC(0-t) ([2]; 200 mg, 200 mg twice weekly (D1, D4), Cycle/Day 1/15, read-out: AUC0-24 [Mean(CV %)]): 18.6 µM·h
Cmax [2, 13]: 1230 nM
Tmax [2, 13]: 3 h
half-life ([2]; 200 mg, following a single dose at 200 mg, read-out: median half-life (converted)): ~1980 min
half-life ([2]; po, patients, D1, D4 intermittent schedule, read-out: half-life (estimated) (converted)): 1500 min
accumulation from day 1 to day 15 ([2]; twice weekly intermittent dosing (D1, D4 or D1, D2)): No accumulation
response ([3]; one patient, uterine carcinosarcoma, two NF1 LOF mutations, 200 mg D1D4 reduced to 140 mg D1D4): complete response
tumor response ([3]; patient with NSCLC harboring NF1 LOF and KRASG12C): tumor shrinkage
time on study therapy at which CR continues [3, 14]: five months
tumor dimension at two months (baseline 1.7 cm) [3, 14]: undetectable
effect on proliferation (proliferation): inhibits
time on treatment (KRAS mutant NSCLC): over 14 months
anti-tumor effect (FIG. 2) [4]: induces status and regression
plasma exposure relative to the EC75 ([5]; 10 mg/kg daily): did not exceed the EC75
anti-tumor effect ([5]; 10 mg/kg daily (no regressions)): tumor growth inhibition
anti-tumor effect ([5]; 30 mg/kg daily): Tumor regressions
time plasma exposures exceeded the EC75 ([5]; 30 mg/kg daily): 4 to 6 h
activated ERK in peripheral blood cells ([6]; all dose levels tested): trend in favor of inhibition
tumor pERK, before versus on treatment ([6]; one patient, no drug for eight days prior to second biopsy, little pre-treatment phosphorylation): no reduction
phosphorylation of ERK in tumor, before versus on treatment ([6]; three cases, drug at steady state, daily dosing): reduction in phosphorylation of cytoplasmic and nuclear ERK
exposure required to see anti-tumor effects, particularly tumor stasis ([7]; animal models): 6.44 µM·h
Cmax ([7]; in vivo, 20 mg/kg): 3400 nM
AUC(0-t) ([7]; in vivo, 20 mg/kg): 11.7 µM·h
Cmax ([7]; plasma, 10 mg/kg): 980 nM
AUC(0-t) ([7]; plasma, 10 mg/kg): 6.44 µM·h
QTc, single reading in one patient (SAE, causality considered absent or unlikely by Sponsor) ([8]; 60 mg daily, no dose for three days, history of prolonged QTc, ondansetron): grade 3 prolongation of QTc
safety/tolerability of schedule ([8]; D1, D2 schedule): improved safety/tolerability
maximum tolerated dose ([8]; D1, D4 schedule): 140 mg
deaths (grade 5 AEs) ascribed to drug ([8]; daily administration): No deaths
maximum tolerated dose (putative MTD) ([8]; daily schedule): 60 mg
patients with increase in alanine transaminase attributed to drug, all grades ([8]; daily schedule): 10%
patients with increase in aspartate transaminase attributed to drug, all grades ([8]; daily schedule): 16%
pneumonitis ([8]; daily schedule): no reports
recommended phase 2 dose ([8]; daily schedule): ~60 mg
toxicities consistent with off-target effects ([8]; daily schedule): No toxicities
AEs with daily dosing compared with intermittent schedule ([8]; daily schedule, 49 patients): more frequent and severe AEs than the intermittent schedule
patients with toxicities involving the lungs or respiratory system attributed in part to drug ([8]; daily schedule, eight patients): 16%
serious adverse events possibly or probably related to study drug ([8]; daily schedule, three events): 6%
patients with grade 3 or grade 4 increase in alanine transaminase or aspartate transaminase ([8]; daily schedule, two patients): 4%
related grade 4 or grade 5 AEs ([8]; intermittent D1, D4 schedule, 14 patients): No related grade 4 or grade 5 AEs
related SAE reported (grade 3 abdominal distension) ([8]; intermittent schedule, patient with pancreatic cancer, 200 mg twice weekly): One
systemic activation of the immune system ([8]; treated subjects): little evidence
apoptosis in vivo [9]: induce apoptosis
